Experimental data from US20070203244A1, “INHIBITORS OF MEMBRANE TYPE-1 MATRIX METALLOPROTEINASE FOR THE TREATMENT OF INSULIN-DEPENDENT DIABETES MELLITUS” (priority 2006, published 2007).

Key:
NOD mice = test: Adoptively transferred diabetes in NOD mice (IS-CD8+ cells); assay type: in vivo
Experimental: IS-CD8^+ cells were labeled with DiI and then injected in NOD mice. In 24 h, the labeled cells with their intra-islet location were counted in the cryostat sections of the entire pancreas. […] IS-CD8^+ cells were injected in NOD mice. […] PBS containing […] DMSO was used as a vehicle control. The onset of diabetes was monitored daily by measuring urine glucose levels with the Diastix reagent strips. Mice with urine glucose levels of ≧2000 mg/dl for 3 consecutive days were considered diabetic. * and **, p=0.02 and p=0.015 by Fisher's test, respectively.
Mice were monitored for 21 days. […] The onset of diabetes was identified by assessing urine glucose levels with Diastix® strips (Bayer). Mice with urine glucose levels of >2000 mg/dl for 3 consecutive days were considered diabetic. […] The level of glucose in the urine closely follows that in the blood (Traisman, H. S., and Greenwood, R. D. (1973)). The measurement of glucose in urine is a widely accepted method to follow the development of diabetes in NOD mice (Pomerleau, D. P., et al. (2005)).

MT1-MMP = target: T1, MT1-MMP (Mus musculus, UniProt P53690); test: MT1-MMP-dependent MMP-2 activation in adherent IS-CD8+ cells, gelatin zymography; assay type: cell-based, NOD mouse
T1 construct: Endogenous MT1-MMP is latent in non-adherent IS-CD8^+ cells; endogenous in cells; host or cells: IS-CD8+ T cells (TGNFC8 clone, NOD mouse), adherent to gelatin
Experimental: MT1-MMP-dependent MMP-2 Activation and Gelatin Zymography—IS-CD8^+ cells (1×10^6) were either allowed to adhere for 4 h in serum-free unsupplemented Click's medium to plastic coated with 2% gelatin or kept in solution. Under these experimental conditions, the vast majority of cells became attached to gelatin. In 4 h, media samples (30 μl each) were withdrawn and analyzed by gelatin zymography (Deryugina, E. I., et al. (2001)) to identify the proteolytic activity and the activation status of MMP-2 naturally synthesized by IS-CD8^+ cells. Where indicated, cells were supplemented with external purified pro-MMP-2 (20 ng). Pro-MMP-2 was isolated from a conditioned medium of p2AHT2A72 cells derived from an HT1080 fibrosarcoma cell line sequentially transfected with the E1A and MMP-2 cDNAs (Strongin, A. Y., et al. (1995)).
MT1-MMP-dependent MMP-2 activation and gelatin zymography—IS-CD8^+ cells (1×10^6) were either allowed to adhere for 4 h in serum-free unsupplemented Click's medium to the plastic coated with 2% gelatin or kept in solution. In 18 h, media samples (30 μl each) were withdrawn and analyzed by gelatin zymography (Deryugina, E. I., et al. (2001)) to identify the proteolytic activity and the activation status of MMP-2 naturally synthesized by IS-CD8^+ cells. […] Pro-MMP-2 was isolated from a conditioned medium of p2AHT2A72 cells derived from an HT1080 fibrosarcoma cell line sequentially transfected with the E1A and MMP-2 cDNAs (Strongin, A. Y., et al. (1995)).

[1] = system: CD44 shedding in IS-CD8+ cells; test: CD44 shedding in adherent IS-CD8+ cells, Western blotting; assay type: cell-based, NOD mouse
Experimental: Western Blotting—IS-CD8^+ cells were surface biotinylated for 1 h at 4° C. with 0.1 mg/ml sulfo-NHS-LC-biotin (Pierce, Rockford, Ill.). Following washes to remove biotin, cells were co-incubated for 2 h with MT1-MMP-CAT in serum-free, unsupplemented Click's medium. The cells were then lysed with 50 mM N-octyl-β-D-glucopyranoside in phosphate-buffered saline supplemented with 1 mM CaCl2, 1 mM MgCl2, and protease inhibitor mixture containing phenylmethylsulfonyl fluoride (1 mM) and aprotinin, pepstatin, and leupeptin (1 μg/ml each). Biotin-labeled CD44 was captured from the cell lysate and from the medium aliquots on streptavidin-agarose beads. The captured samples were examined by Western blotting with the CD44 (clone IM7.8.1) antibody to determine the released, soluble, CD44 ectodomain in the medium samples and the residual, membrane-anchored, cellular CD44 in the cell lysates.
Western blotting—IS-CD8^+ cells were surface biotinylated for 1 hr at 4° C. with 0.1 mg/ml of sulfo-NES-LC-biotin (Pierce). Following washes to remove biotin, the labeled cells were allowed to adhere in serum-free medium to plastic coated with 2% type I collagen/gelatin for 4 h or were kept in suspension. Under these experimental conditions, the vast majority of the cells became attached to gelatin. […] The cells were then lysed with 50 mM N-octyl-β-D-glucopyranoside in PBS supplemented with 1 mM CaCl2, 1 mM MgCl2, and protease inhibitor cocktail containing phenylmethylsulfonyl fluoride (1 mM) and aprotinin, pepstatin, and leupeptin (1 μg/ml each). Biotin-labeled CD44 was captured from the cell lysate and from the medium aliquots on streptavidine-Agarose beads. The captured samples were examined by Western blotting with the CD44 (clone IM7.8.1) antibody to determine the released, soluble, CD44 ectodomain in the medium samples and the residual, membrane-anchored, cellular CD44 in the cell lysates.

[2] = continuous oral dosing, cited from earlier work

Compound: CC1(C)SCCN(S(=O)(=O)c2ccc(Oc3ccncc3)cc2)[C@H]1C(=O)NO [AG3340]
- delay of the onset of diabetes compared with the control (NOD mice; Example 1: cells co-incubated with AG3340, 1 mg/kg i.p. on days 0, 2, 4, 6, 8, 10): ~2 fold
- delay of the onset of diabetes compared to the control (NOD mice; Example 3: 1 mg/kg i.p. 30 min prior to cells, then every other day): approximately 2 fold
- activation of MMP-2 in adherent cells (MT1-MMP; Example 2: AG3340 50 μM, TIMP-1 and TIMP-2 100 ng/ml, 18 h): fully blocked
- activation of MMP-2 in adherent cells (MT1-MMP; Example 3: inhibitors added for 18 h): fully blocked
- shedding of CD44 in adherent cells ([1]; Example 2: AG3340 50 μM, TIMP-1 and TIMP-2 100 ng/ml): fully blocked
- shedding of CD44 in adherent cells ([1]; Example 3): fully blocked
- dose inducing musculoskeletal effects that required dose discontinuation in more than half of the subjects ([2]; 2 to 100 mg/day in two doses per day): above 25 mg/day
- severe dose-limiting toxicity ([2]; 2 to 100 mg/day): did not result in severe dose-limiting toxicity
